Here are results for ten molecules from US20240100178A1, “EGFR TARGETING PEPTIDE CONJUGATE” (Chapman University, priority 2022, published 2024).

In series [1] the test system is TNBC cells (MDA-MB-468, 231, and 436). As to the kind of experiment: SPOT peptide array library screen for binding to TNBC cells versus normal breast cells. The series is classed as cell-based. The conditions noted are these: peptide array incubated with TNBC cells (MDA-MB-468, 231, 436) or normal breast cells (MCF-10A, 12A); relative to lead GE11. How it is done:
A library of 30 peptide sequences (in duplicates, total 60 peptides) was synthesized in an array format on functionalized cellulose membrane using SPOT synthesis. The peptide library was screened for identifying EGFR binding peptide in TNBC cells by incubating the library with TNBC cells (MDA-MB-468, 231, and 436) or normal breast (MCF-10A and 12A) cells.

Series [2] can be described thus: Stability of PDoxC in human serum at 37° C. (RP-HPLC). The series is classed as in vitro ADME. The conditions noted are these: HPLC peak AUC. On the procedure: (§1) FIG. 3 depicts the stability of the PDoxC in the presence of human or mouse serum at 37° C. The PDoxC was incubated with human or mouse serum and aliquots were removed at different time intervals for HPLC analysis. The AUC for PDoxC peak was used to calculate the percent intact at different time points.
(§2) The stability of the peptide 31 PDoxC was evaluated by incubating it with human or mouse serum at 37° C. (FIG. 3). Aliquots were removed at regular intervals to analyze the PDoxC using RP-HPLC.

Series [3] in a line: Stability of PDoxC in mouse serum at 37° C. (RP-HPLC). The series is classed as in vitro ADME. The note with it: HPLC peak AUC. On the procedure: as §1, §2
Another series has as its system MDA-MB-231. As to the kind of experiment: Cytotoxicity MTT/MTS assay, MDA-MB-231. The series is classed as cell-based. The conditions noted are these: MDA-MB-231 (TNBC) cells. The source says:
(§3) FIG. 4A-C depicts the cytotoxicity of PDoxC, obtained by […], for three cell lines (MDA-MB-231 [FIG. 4A], MDA-MB-468 [FIG. 4B], and MCF-10A [FIG. 4C]). Cell viability is plotted against drug concentration (PDoxC or Dox) to obtain IC50 values. Each experimental point was done in duplicates or triplicates and the experiment was repeated once.
(§4) Next, the cytotoxicity of the peptide 31 PDoxC was compared to the DOX (free drug) using MTS assay (FIG. 4A-C). Three cell lines were used, two TNBC cell lines (MDA-MB-231 and MDA-MB-468) and one non-cancerous mammary epithelial MCF-10A cell line. […] This peptide 31 PDoxC is very promising as this level of selectivity has never been observed with previously reported peptide-drug conjugates.
In general terms: Tetrazolium dyes change colour on reduction, which living cells bring about.

For the next series, the system named is MDA-MB-468. As to the kind of experiment: Cytotoxicity MTT/MTS assay, MDA-MB-468. Type of series: cell-based. The conditions noted are these: MDA-MB-468 (TNBC) cells.
Text: as §3, §4

The subject of another series is MCF-10A. As to the kind of experiment: Cytotoxicity MTT/MTS assay, MCF-10A. The note with it: MCF-10A non-cancerous mammary epithelial cells; highest tested concentration 25 μM. Type of series: cell-based.
Text: as §3, §4

Series [4] is described as follows: Stability of peptide GE11 in human serum at 37° C. (RP-HPLC). Type of series: in vitro ADME. On the procedure: Peptide was incubated with human serum at 37° C., and aliquots were removed at different time intervals for HPLC analysis.
Peptides show low proteolytic stability when administered systemically and must be stabilized for clinical application. […] The three N-terminal amino acids (1Y, 2H, 3W) were cleaved sequentially by proteolysis, giving three fragments (A, B, and C, Table 2)) that appear in the HPLC chromatograms. […] Therefore, blocking the N-terminus of the peptide with a chemotherapeutic drug yields a stable conjugate.

Series [5] deals with EGFR expressing TNBC cells (MDA-MB-231 and MDA-MB-468). As to the kind of experiment: Peptide uptake by EGFR expressing TNBC cells. Type of series: cell-based. The source says:
(§5) The specific binding and uptake of peptide 22 (FITC labeled peptide) by EGFR in TNBC cells was confirmed by competition assay using flow cytometry.

Series [6] concerns noncancerous mammary epithelial cells (MCF-10A and MCF12A). Put plainly: Peptide uptake by noncancerous mammary epithelial cells. The series is classed as cell-based.
Another series deals with EGFR in MDA-MB-231 cells. As to the kind of experiment: EGF competition assay of FITC labeled peptide uptake by flow cytometry. Type of series: cell-based.
Text: as §5
Background: In flow cytometry, cells or beads pass a laser one at a time.

Series [7] addresses T1, epidermal growth factor receptor (EGFR) on TNBC cells (UniProt P00533 25-1210, limits assumed).
T1 construct: whole, on cells; also called ErbB1
As to the kind of experiment: SPOT peptide array on cellulose membrane incubated with TNBC cells (MDA-MB-468, 231, 436) or normal breast cells.

Where a SMILES comes first, the peptide text is derived from it. The star is where a group is joined. X1 = COc1cccc2c1C(=O)c1c(O)c3c(c(O)c1C2=O)C[C@@](O)(C(=O)CO)C[C@@H]3O[C@H]1C[C@H](NC(=O)C2CCC(CN3C(=O)CC(*)C3=O)CC2)[C@H](O)[C@H](C)O1

By half-life is commonly meant the time needed for the level to fall by half in the phase considered. A higher half-life goes with slow decline. Usually IC50 stands for the point on the concentration scale where inhibition reaches its midpoint. By share remaining is commonly meant the share of the starting amount still present when the sample was taken.

On to YHWYGYTPQDVI [Peptide 23], for which, in series [1], the “specific affinity for TNBC cells” value was “higher specific affinity”.

With `CC[C@H](C)[C@H](NC(=O)[C@@H](NC(=O)[C@H](CCCNC(=N)N)NC(=O)[C@H](CCC(=O)O)NC(=O)[C@@H]1CCCN1C(=O)[C@@H](NC(=O)[C@H](Cc1ccc(O)cc1)NC(=O)CNC(=O)[C@H](Cc1ccc(O)cc1)NC(=O)[C@H](Cc1c[nH]c2ccccc12)NC(=O)[C@H](Cc1c[nH]cn1)NC(=O)[C@H](Cc1ccc(O)cc1)NC(=O)[C@@H](N)CSC1CC(=O)N(CC2CCC(C(=O)N[C@H]3C[C@H](O[C@H]4C[C@](O)(C(=O)CO)Cc5c(O)c6c(c(O)c54)C(=O)c4c(OC)cccc4C6=O)O[C@@H](C)[C@H]3O)CC2)C1=O)[C@@H](C)O)C(C)C)C(=O)O` (some centres unmarked) [PDoxC] (H-C(X1)YHWYGYTPERVI-OH; N-terminus and C-terminus assumed), the half-life in series [2] is 12.7 h; in [3], 4 h. Further, the concentration for half-maximal inhibition (IC50) in the series on MDA-MB-231 worked out at 2370 ± 550 nM; in the series on MDA-MB-468 it was 2750 ± 570 nM. Further, the “IC50 ± SD” value with MCF-10A is reported as “no toxicity”.

On to YHWYGYTPQKVI [Peptide 27], for which the “specific affinity for TNBC cells” value in [1] is “higher specific affinity”.

Regarding `COc1cccc2c1C(=O)c1c(O)c3c(c(O)c1C2=O)C[C@@](O)(C(=O)CO)C[C@@H]3O[C@H]1C[C@H](N)[C@H](O)[C@H](C)O1` [Free Dox, doxorubicin, reference compound], the IC50 in the series with MDA-MB-468 turned out to be 570 nM; in the series with MCF-10A, 1410 nM.

In the case of `CC[C@H](C)[C@H](NC(=O)[C@@H](NC(=O)[C@H](CC(N)=O)NC(=O)[C@H](CCC(N)=O)NC(=O)[C@@H]1CCCN1C(=O)[C@@H](NC(=O)[C@H](Cc1ccc(O)cc1)NC(=O)CNC(=O)[C@H](Cc1ccc(O)cc1)NC(=O)[C@H](Cc1c[nH]c2ccccc12)NC(=O)[C@H](Cc1c[nH]cn1)NC(=O)[C@@H](N)Cc1ccc(O)cc1)[C@@H](C)O)C(C)C)C(=O)O` [GE11], the “% Intact GE11” value in series [4] (0 h) was found to be 100%. The same molecule had a fraction remaining at 1 h in series [4] (1 h) of 49%. In series [4] (3 h), this molecule yielded a fraction remaining at 3 h of 18%. In addition, in series [4] (7 h), the “% Intact GE11” value came out at 2% and the amount remaining at 7 h turned out to be 2%.

Turning to “YHWYGYTPENVI [Peptide 22, used FITC labeled in uptake assays]”, the “specific affinity for TNBC cells” value in series [1] is “higher specific affinity”. Also, the “uptake by EGFR expressing TNBC cells compared to the lead GE11” value in series [5] is 47-123 fold. Also, the “uptake by noncancerous mammary epithelial cells” value in [6] is recorded as “minimal uptake”. In addition, the “FITC-positive MDA-MB-231 cells” value is on record as 99% with EGFR in MDA-MB-231 cells (FITC labeled peptide alone, without excess EGF) and 2% in the series on EGFR in MDA-MB-231 cells (FITC labeled peptide in the presence of excess EGF protein).

As for YHWYGYTPKNVI [Peptide 26], the “specific affinity for TNBC cells” value in series [1] is listed as “higher specific affinity”.

B1: peptide 26 (peptide)
peptide: YHWYGYTPKNVI
modifications: made on a cellulose membrane by SPOT synthesis in the library screen
B1: the binding result in series [7] is on record as “binds”.

B2: peptide 23 (peptide)
peptide: YHWYGYTPQDVI
modifications: made on a cellulose membrane by SPOT synthesis in the library screen
Consider B2, for which the binding result in series [7] is “binds”.

B3: peptide 27 (peptide)
peptide: YHWYGYTPQKVI
modifications: made on a cellulose membrane by SPOT synthesis in the library screen
notes: 12-mer derived from GE11 (N10K)
In the case of B3, in [7], the binding result was “binds”.
